From ChEMBL document CHEMBL1158113, “Terpenoids and a diarylheptanoid from Zingiber ottensii” (J Nat Prod, 2006)

tested on: Radical scavenging activity; test: Antioxidant activity assessed as DPPH free radical scavenging activity after 30 mins by multilabel counter; assay type: functional

Row | SMILES | IC50
1 | COc1cc(CC[C@@H](O)C[C@@H](O)CCc2ccc(O)c(OC)c2)ccc1O | 20.6 µM
2 | COc1cc(CC[C@H](O)C[C@@H](O)CCc2ccc(O)c(OC)c2)ccc1O | 20.1 µM
3 | COc1cc(CC[C@H](O)C[C@@H](O)CCc2cc(OC)c(O)c(OC)c2)ccc1O | 16.4 µM
4 | COc1cc(CC[C@@H](O)C[C@@H](O)CCc2ccc(O)c(O)c2)ccc1O (relative stereo) | 24 µM
5 | Cc1c(C)c2c(c(C)c1O)CC[C@@](C)(CCC[C@H](C)CCC[C@H](C)CCCC(C)C)O2 [ALPHA-TOCOPHEROL] | 37.5 µM
6 | O=C1O[C@H]([C@@H](O)CO)C(O)=C1O [ASCORBIC ACID] | 35.6 µM
